Data on 3 compounds can be found in patent US20180024136A1, “Development of ABCG2-Sensitive Fluorescent Probe For Isolation of ABCG2low Neural Stem/Progenitor Cells” (National University of Singapore, priority 2015, published 2018).

One data set relates to NS-5 cells. The data set can be described thus: CDg13 staining of NS5 cells under STF31, ionomycin or Ko143. The note with it: STF31 2 μM, ionomycin 0.1 μM, Ko143 0.5 μM. The class given is cell-based, mouse. On the procedure: FIGS. 7A-7C show CDg13 stains depending on Abcg2 activity: (A) CDg13 (1 μM) were stained for 1 hour in live (A-1) or dead cells treated with 4% PFA (A-2) (representative image of three independent experiments, and (B) and (C) NS5 cells were treated STF31 (2 μM), ionomycin (0.1 μM) or Ko143 (0.5 μM) with treatment of CDg13 and Hoechst33342 under normal media (control had same amount of DMSO (0.2%) with other drugs treated group), staining intensity is shown by epifluorescence microscopy (B) or flow cytometry (C) (bar: 50 μm).
(§1) Flow cytometry was performed using Attune Cytometer (Invitrogen). Hoechest33342 (2 μM) and CDg13 (1 μM) are incubated with culture media for 1 hours and detached as single cells. The collected cells were suspended in BSA- and FBS-free DMEM to prevent loss of CDg13 signal. The average fluorescence intensity of total cells in each experimental group was analyzed by Attune cytometer software for quantification study.

In a further data set the test system is differentiated NS5 cells. The data set can be described thus: CDg13 staining of differentiated NS5 cells under ABC transporter inhibitors (flow cytometry). Format: cell-based, mouse. The settings on record: inhibitor during staining. On the procedure: as §1
The next data set concerns human KB3-1 cells. The data set can be described thus: MTS viability assay on KB3-1 cells. Format: cell-based. The settings on record: 48 h.
The next data set addresses ABCB1 (Homo sapiens, UniProt P08183). The data set can be described thus: Probe fluorescence in HCT-15 cells under verapamil. The note with it: HCT-15, 10 to 10,000 nM verapamil.
The target in a further data set is T1, ABCG2 (Homo sapiens, UniProt Q9UNQ0).
T1 sequence (Q9UNQ0 1-655): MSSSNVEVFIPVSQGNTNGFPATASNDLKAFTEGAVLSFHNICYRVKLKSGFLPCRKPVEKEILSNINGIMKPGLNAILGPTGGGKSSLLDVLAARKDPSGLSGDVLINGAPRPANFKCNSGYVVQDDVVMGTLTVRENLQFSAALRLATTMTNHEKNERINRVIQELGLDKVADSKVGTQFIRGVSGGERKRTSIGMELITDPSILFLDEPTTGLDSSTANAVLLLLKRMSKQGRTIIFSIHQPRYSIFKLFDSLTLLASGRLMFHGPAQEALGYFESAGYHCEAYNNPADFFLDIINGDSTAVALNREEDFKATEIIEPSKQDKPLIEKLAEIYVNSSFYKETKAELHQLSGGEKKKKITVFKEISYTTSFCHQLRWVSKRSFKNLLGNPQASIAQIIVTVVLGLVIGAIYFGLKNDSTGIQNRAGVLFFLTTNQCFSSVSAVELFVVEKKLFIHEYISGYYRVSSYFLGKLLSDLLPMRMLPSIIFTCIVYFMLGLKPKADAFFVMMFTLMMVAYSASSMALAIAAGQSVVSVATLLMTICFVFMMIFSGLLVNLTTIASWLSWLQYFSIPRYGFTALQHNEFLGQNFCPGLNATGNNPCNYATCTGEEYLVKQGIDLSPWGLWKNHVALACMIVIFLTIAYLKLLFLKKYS
The data set can be described thus: Probe fluorescence in ABCG2/KB3-1 cells under Ko143. The settings on record: ABCG2/KB3-1, 10 to 1,000 nM Ko143.

Chain of ABCB1 (P08183 whole entry): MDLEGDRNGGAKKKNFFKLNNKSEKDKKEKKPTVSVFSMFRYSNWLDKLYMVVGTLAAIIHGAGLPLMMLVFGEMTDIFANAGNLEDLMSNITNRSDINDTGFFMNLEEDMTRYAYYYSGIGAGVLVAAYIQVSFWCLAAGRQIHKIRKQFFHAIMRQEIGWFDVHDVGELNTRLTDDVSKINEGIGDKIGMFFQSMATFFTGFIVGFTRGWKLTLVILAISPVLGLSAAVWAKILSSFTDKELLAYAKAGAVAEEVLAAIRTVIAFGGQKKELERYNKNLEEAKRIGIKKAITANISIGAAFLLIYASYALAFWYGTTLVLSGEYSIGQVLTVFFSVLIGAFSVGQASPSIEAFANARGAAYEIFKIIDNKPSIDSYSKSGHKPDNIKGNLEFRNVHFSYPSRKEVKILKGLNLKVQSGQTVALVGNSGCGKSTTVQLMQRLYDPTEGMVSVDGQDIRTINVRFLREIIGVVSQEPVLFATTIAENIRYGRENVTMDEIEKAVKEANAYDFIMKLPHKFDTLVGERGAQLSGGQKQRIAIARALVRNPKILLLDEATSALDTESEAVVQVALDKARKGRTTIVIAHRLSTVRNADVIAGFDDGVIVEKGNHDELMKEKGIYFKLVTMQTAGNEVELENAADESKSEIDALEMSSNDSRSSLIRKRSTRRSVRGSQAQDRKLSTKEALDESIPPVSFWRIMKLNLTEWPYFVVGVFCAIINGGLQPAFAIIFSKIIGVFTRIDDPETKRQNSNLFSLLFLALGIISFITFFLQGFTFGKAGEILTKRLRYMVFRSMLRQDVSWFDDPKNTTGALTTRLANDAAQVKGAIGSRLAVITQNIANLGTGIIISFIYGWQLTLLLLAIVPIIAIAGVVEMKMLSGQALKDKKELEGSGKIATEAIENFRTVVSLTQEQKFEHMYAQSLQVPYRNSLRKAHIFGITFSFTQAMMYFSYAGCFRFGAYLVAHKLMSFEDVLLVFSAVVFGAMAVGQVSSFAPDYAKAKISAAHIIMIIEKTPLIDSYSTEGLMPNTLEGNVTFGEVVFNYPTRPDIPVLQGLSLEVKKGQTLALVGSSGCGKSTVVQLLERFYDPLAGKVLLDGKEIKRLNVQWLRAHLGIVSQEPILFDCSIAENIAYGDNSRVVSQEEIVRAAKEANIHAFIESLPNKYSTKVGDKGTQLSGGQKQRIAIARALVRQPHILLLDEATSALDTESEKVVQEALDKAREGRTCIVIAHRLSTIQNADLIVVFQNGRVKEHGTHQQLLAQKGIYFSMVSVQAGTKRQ

On to `COc1ccc2c3c([nH]c2c1)[C@H](CC(C)C)N1C(=O)[C@H](CCC(=O)OC(C)(C)C)NC(=O)[C@@H]1C3` [Ko143], for which, in the data set with NS-5 cells, the “effect on CDg13 staining” value is “stained CDg13 more strongly than normal NS-5 cells”. The “staining of CDg13 versus DMSO control” value in the data set on differentiated NS5 cells is given as “around 2.5 fold”.
For `CCOc1ccc(-c2nc3ccc(-c4nc5ccc(N6CCN(C)CC6)cc5[nH]4)cc3[nH]2)cc1` [Hoechst 33342], the death rate with human KB3-1 cells (1 μM) is listed as 25%. This compound gave a cell death in the data set with human KB3-1 cells (10 μM) of 100%. Besides, the “fold change of staining” value at ABCB1 is “up to 1.5 fold”. Besides, the “fold change in fluorescence intensity” value on ABCG2 is on record as “up to 1.3 fold”.
Rhodamine123: the “fold change of staining” value at ABCB1 is on record as “up to 4.0 fold”. The “fold change in fluorescence intensity” value on ABCG2 was “did not increase”.
